{
  "source": "paper PMC7287882",
  "about": "“Dual miRNases for Triple Incision of miRNA Target: Design Concept and Catalytic Performance” (Molecules, 2020)",
  "key": {"miR-18a": {"tested_on": "miR-18a", "experiment": "Gel-retardation assay, hybridization with miR-18a", "assay_type": "binding", "conditions": "37 °C, 45 min, mean of 3", "from_the_text": "We carried out a comparative analysis of the hybridization properties of the developed DCs with the corresponding SCs, which were the products of the first stage of the DCs synthesis. As discussed above, each SC consisted of the corresponding oligonucleotide A, which was complementary to the 5′-region of the matching miRNA target, and the catalytic peptide [LRLRG]2, attached to the 5′-end of this oligonucleotide via a thiohexyl linker (linker 2). […] Indeed, the level of binding of DCs to their miRNA targets reached 96, 90, 75, 55% at equimolar concentration (1 μM), and 99, 96, 92 and 69% at 5-fold excess of DCs over miR-17, miR-18a, miR-21 and miR-155, respectively (Figure 2). […]\nThe reaction mixture (4 µL) containing 50 mM Tris-HCl, pH 7.0, 200 mM KCl and 1 mM EDTA, 100 cpm (Cherenkov’s counting) of [^32P]-miRNA, 1 μM unlabeled miRNA, a conjugate at a concentration ranging from 0.1 to 10 μM was incubated at 37 °C for 45 min and quenched by adding of a loading buffer (20% ficoll, 0.025% bromophenol blue, 0.025% xylene cyanol). […] Formation of the complex miRNA/conjugate was analyzed by electrophoresis in 15% native PAAG at 4 °C. The gels were analyzed using Molecular Imager FX. The extent of binding of conjugate to miRNA was determined as a ratio of radioactivity measured in the complex to the total radioactivity applied onto the gel lane."}, "miR-21": {"tested_on": "miR-21", "experiment": "Ribonuclease activity assay, cleavage of miR-21", "assay_type": "biochemical", "conditions": "buffer (2) 20 mM Tris-HCl pH 7.8, 40 mM KCl, 8 mM MgCl2, 1 mM DTT, 0.02 mg/mL BSA, miRNA 1 µM, DC 20 µM, 37 °C", "experimental": "The ribonuclease activity of DCs was studied under two different buffer conditions: buffer (1) contained 50 mM Tris-HCl, pH 7.0, 200 mM KCl, 1 mM EDTA, which imitates intracellular conditions (e.g., pH and potassium ions concentration) and was used in a number of studies previously; and buffer (2) contained 20 mM Tris-HCl, pH 7.8, 40 mM KCl, 8 mM MgCl2, 1 mM DTT, 0.02 mg/mL BSA, which is recommended for in vitro reactions with RNase H (Figure 3 and Figure 4).\nFigure 3 Kinetics of cleavage of 5′-[^32P]-labeled miR-17, miR-18a, miR-155, miR-21 and miR-21_1 by corresponding DCs in the buffer (1), containing 50 mM Tris-HCl, pH 7.0, 200 mM KCl and 1 mM EDTA. (a–e) Radioautographs of 18% denaturing PAAG showing the cleavage products of miR-17, miR-18a, miR-155, miR-21 and miR-21_1, respectively. miRNA (1 µM) and corresponding DC (20 µM) were incubated at 37 °C for 72 h. Lanes Im and T1—imidazole ladder and partial RNA digestion with RNase T1, respectively; control–miRNA was incubated in the absence of the conjugate. The incubation time (in hours) is show at the top. SS gap–single-stranded region of miRNA formed upon hybridization with DC; (f) Kinetics of miRNAs cleavage by DCs depending on the incubation time. Data are presented as mean ± s.e.\nFigure 4 Kinetics of cleavage of 5′-[^32P]-labeled miR-17, miR-18a, miR-155, miR-21, and miR-21_1 by corresponding DCs in the buffer (2), containing 20 mM Tris-HCl, pH 7.8, 40 mM KCl, 8 mM MgCl2, 1 mM DTT, 0.02 mg/mL BSA. (a–e) Radioautographs of 18% denaturing PAAG showing the cleavage products of miR-17, miR-18a, miR-155, miR-21 and miR-21_1, respectively. miRNA (1 µM) and corresponding DC (20 µM) were incubated at 37 °C for 72 h. Lanes Im and T1–imidazole ladder and partial RNA digestion with RNase T1, respectively; control–miRNA was incubated in the absence of the conjugate. The incubation time (in hours) is shown at the top. SS gap–single-stranded region of miRNA formed upon hybridization with DC; (f) Kinetics of miRNAs cleavage by DCs. Data are presented as mean ± s.e.\nThe reaction mixture (10 µL) contained 800 cpm (Cherenkov’s counting) of [^32P]-miRNA, 1 μM unlabeled miRNA, one of the conjugates at a concentration 10 or 20 μM and one of the buffers: 50 mM Tris-HCl, pH 7.0, 200 mM KCl, 1 mM EDTA–buffer (1) or 20 mM Tris-HCl, pH 7.8, 40 mM KCl, 8 mM MgCl2, 1 mM DTT, 0.02 mg/mL BSA–buffer (2). The mixture was incubated at 37 °C for 0–72 h and quenched by precipitation of RNA with 2% LiClO4 in acetone (90 µL). RNA was collected by centrifugation and dissolved in loading buffer (8 M urea, 0.025% bromophenol blue, 0.025% xylene cyanol). RNA cleavage products were analyzed in 18% PAAG/8M urea using TBE (100 mM Tris-borate, pH 8.3, 2 mM EDTA) as running buffer. To identify cleavage sites, an imidazole and T1-ladders produced by partial RNA cleavage with 2 M imidazole buffer (pH 7.0) and with RNase T1 [68], respectively, were run in parallel. To obtain quantitative data, gels were dried and analyzed using Molecular Imager FX. The total extent of RNA cleavage and the extent of RNA cleavage at each individual site were determined by using Quantity One software v.4.1 (Bio-Rad, Hercules, CA, USA)."}},
  "data": [
    {"substance": "TATCTGC–linker 1–[GRLRL]2–linker 2–ATGCACCTTA [miRNA-18a-DC, Dual oligonucleotide-peptide conjugate targeted to miR-18a: catalytic peptide [LRLRG]2 between two 2-aminoadenine-containing oligodeoxyribonucleotides]", "values": [
      {"measurement": "level of binding of DC to miRNA target", "setting": "miR-18a; 5-fold excess of DC over miRNA (1 µM), same buffer", "result": 96, "unit": "%"},
      {"measurement": "level of binding of DC to miRNA target", "setting": "miR-18a; equimolar, DC 1 µM : miRNA 1 µM, 50 mM Tris-HCl pH 7.0, 200 mM KCl, 1 mM EDTA", "result": 90, "unit": "%"}
    ]},
    {"substance": "TCAACATC–linker 1–[GRLRL]2–linker 2–GATAAGCTA [miRNA-21-DC, Dual oligonucleotide-peptide conjugate targeted to miR-21: catalytic peptide [LRLRG]2 between two 2-aminoadenine-containing oligodeoxyribonucleotides]", "values": [
      {"measurement": "Total Cleavage", "setting": "miR-21; 2 h", "result": 4, "unit": "%"},
      {"measurement": "Total Cleavage", "setting": "miR-21; 6 h", "result": 13, "unit": "%"},
      {"measurement": "Total Cleavage", "setting": "miR-21; 24 h", "result": 30, "unit": "%"},
      {"measurement": "Total Cleavage", "setting": "miR-21; 48 h", "result": 30, "unit": "%"},
      {"measurement": "Total Cleavage", "setting": "miR-21; 72 h", "result": 34, "unit": "%"}
    ]}
  ]
}
